Here are results for four compounds from patent publication US20240124488A1, “AZA-CRYPTOPHANES, PROCESSES FOR PREPARATION THEREOF, AND THEIR USES” (UNIVERSITE DE CAEN NORMANDIE, priority 2021, published 2024).

Data set [1] can be described thus: Experimental solubility in organic solvents.
Excerpt: (§1) Experimental Solubility of Cryptophane a (Conventional Cryptophane Outside the Invention)
(§2) Experimental Solubility of Cryptophane-1N
Data set [2] can be described thus: Cavity size by X-ray crystallography. Conditions: crystals by slow evaporation in dichloromethane at 4° C. It counts as physicochemical. As for the experimental part:
Crystallographic data of both anti and syn cryptophanes 1N were obtained by slow evaporation in dichloromethane at 4° C. The anti compound has a cavity size of 137.0 Å^3 and the syn compound has a cavity size of 121.4 Å^3, both larger than the size of the prior art cryptophane C (114.5 Å^3).
Anti cryptophanes 1N crystals were also obtained by slow evaporation in anisole, which is too large to enter the cage. This enabled to visualise the conformation of the cryptophane 1N and the size of its cavity without caged compound. The size of the empty cavity is between 85.4 and 86.8 Å^3.

The nature of data set [3]: 129Xe NMR xenon encapsulation. It counts as binding. The following applies: 5 bars, CDCl3, 278 K. An excerpt: FIG. 1 illustrates the ^129Xe NMR spectrum (5 bars, CDCl3) of cryptophane-1N 12.
^129Xe NMR (5 bars, CDCl3): illustrated in FIG. 1.

Data set [4] in a line: Encapsulation efficiency by UV spectrophotometry. In kind it is physicochemical. As for the experimental part: Cryptophanes concentration were defined using spectrophotometry (Infinite M200, Tecan, Mannedorf, Switzerland) by determining absorbance spectrum of Crytophane in solution in MeOH.
The encapsulation efficiency (EE) was determined after filtration through 0.2 μm syringe filters (Minisart® Syringe Filter, Sartorius, Goettingen, Germany) to remove unentrapped cryptophanes. Then, these samples were diluted in methanol (1/100, v/v) and the concentration of cryptophane was determined by spectrophotometry at 288 nm. The EE was determined in duplicate and calculated as follows: […]
A UV calibration curve for each of the compounds was carried out (see protocol above) using a stock solution of Cr1N in acetonitrile (1.05 mg/mL) and a stock solution of cryptophane A in DMSO (1.85 mg/mL), solutions subsequently diluted in methanol.
The batch of nanoemulsions loaded with Cr1N was diluted 100-fold in methanol. Under these conditions, it was confirmed by DLS that the nanoemulsions were destroyed. The amount of cryptophane in this sample was then determined. The concentration of cryptophane in the sample was 28 μM, i.e. an encapsulation efficiency of 60%.

The nature of another data set: physchem. The following applies: organic solvent or mixture.
The conditions of data set [5]: prior art cryptophane; cited from earlier work.

Several values for one entry are separate records, joined by “and”; a condition that tells them apart may be missing. Equal values may be shown once. Read-outs that look alike come from different tables or passages of the source.

Excerpt for physchem: as §1, §2

As to `COc1cc2c3cc1OCCOc1cc4c(cc1OC)Cc1cc5c(OC)cc1Cc1cc(c(OC)cc1C4)OCCOc1cc(c(cc1OC)C3)Cc1cc(OC)c(cc1C2)OCCO5` [Cryptophane A], the “Experimental solubility in MeCN” value in data set [1] is reported as “very poorly soluble”.

For the compound `COc1cc2c3cc1OCCOc1ccc4c(c1)Cc1ccc5cc1Nc1ccc(cc1C4)OCCOc1cc(c(cc1OC)Cc1cc(c(OC)cc1C3)OCCO5)C2` [Cryptophane-1N Syn], the cavity size in data set [2] was 121.4 Å^3.

One may read the solubility as the dissolved amount per volume that the medium holds. For the compound `COc1cc2c3cc1OCCOc1ccc4c(c1)Cc1ccc5cc1Nc1ccc(cc1C4)OCCOc1cc(c(cc1OC)C3)Cc1cc(OC)c(cc1C2)OCCO5` [Cryptophane-1N], in data set [3], the Xenon encapsulation result is on record as “successfully encapsulate xenon”. Besides, the cavity size in data set [2] was 137.0 Å^3. Further, in data set [4], the “amount loaded into nanoemulsions relative to cryptophane A” value is “more than twice as much”. The solubility in the data set “physchem” (Experimental solubility in CHCl3) is over 8.27 mM; in the data set “physchem” (Experimental solubility in DMSO), > 59500 µg/mL and > 73800 µM; in “physchem” (Experimental solubility in MeCN), over 2.23 mM.

On to cryptophane C, for which, in data set [5], the cavity size was 114.5 Å^3.
